Data published in PubChem BioAssay AID248 (DTP/NCI, 2004).
“And” between values parts separate entries of the source, which are not always exact repeats. Identical values can stand only once. Inconclusive results and toxic doses are left out. Rule as the data show it: active = T/C of 150% or more; inactive = T/C below 125%. Peptide text beside a SMILES is read from it. * marks the point of attachment. Trt = c1ccc(C(c2ccccc2)(c2ccccc2)*)cc1; OtBu = CC(C)(C)O*

System: L1210 leukemia ip in BDF1 mice, survival T/C
Assay: NCI In Vivo Anticancer Drug Screen. Data for tumor model L1210 Leukemia (intraperitoneal) in B6D2F1 (BDF1) mice
Settings: endpoint: mean survival time, higher = longer survival
Summary of the method: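 Tumor cells were implanted, animals were treated, and survival was followed. The result divides the treated measurement by the vehicle-control measurement.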

[1] = dose: 100.0 mg/kg/injection, schedule: Q04DX003 (ip), vehicle: Klucel (hydroxypropylcellulose) (HPC)
[2] = dose: 200.0 mg/kg/injection, schedule: Q04DX003 (ip), vehicle: Klucel (hydroxypropylcellulose) (HPC)
[3] = dose: 50.0 mg/kg/injection, schedule: Q01DX009 (ip), vehicle: saline with Tween-80
[4] = dose: 100.0 mg/kg/injection, schedule: Q01DX009 (ip), vehicle: saline with Tween-80
[5] = dose: 400.0 mg/kg/injection, schedule: Q01DX001 (ip), vehicle: saline
[6] = dose: 100.0 mg/kg/injection, schedule: Q01DX001 (ip), vehicle: Klucel (hydroxypropylcellulose) (HPC)
[7] = dose: 200.0 mg/kg/injection, schedule: Q01DX001 (ip), vehicle: Klucel (hydroxypropylcellulose) (HPC)
[8] = dose: 400.0 mg/kg/injection, schedule: Q01DX001 (ip), vehicle: Klucel (hydroxypropylcellulose) (HPC)
[9] = dose: 400.0 mg/kg/injection, schedule: Q01DX001 (ip), vehicle: carboxymethylcellulose (CMC)

Measured: T/C

CCCCNC(=O)C1C=C2c3cccc4[nH]cc(c34)CC2N(C)C1 (configuration not stated)
inactive: dose: 12.5 mg/kg/injection, schedule: Q01DX009 (ip), vehicle: Klucel (hydroxypropylcellulose) (HPC) 102 % of control | dose: 25.0 mg/kg/injection, schedule: Q01DX009 (ip), vehicle: Klucel (hydroxypropylcellulose) (HPC) 104 % of control | dose: 25.0 mg/kg/injection, schedule: Q04DX003 (ip), vehicle: Klucel (hydroxypropylcellulose) (HPC) 93 % of control | dose: 50.0 mg/kg/injection, schedule: Q01DX009 (ip), vehicle: Klucel (hydroxypropylcellulose) (HPC) 118 % of control | dose: 50.0 mg/kg/injection, schedule: Q04DX003 (ip), vehicle: Klucel (hydroxypropylcellulose) (HPC) 93 % of control | [1] 104 % of control | [2] 95 % of control

CC(C)(C)NC(=O)C(Br)c1ccccc1 (configuration not stated)
inactive: dose: 100.0 mg/kg/injection, schedule: Q04DX002 (ip), vehicle: saline with Tween-80 94 % of control | dose: 200.0 mg/kg/injection, schedule: Q04DX002 (ip), vehicle: saline with Tween-80 105 % of control | dose: 400.0 mg/kg/injection, schedule: Q04DX002 (ip), vehicle: saline with Tween-80 94 % of control

CCCCOc1ccc(C(=O)NN)cc1
inactive: dose: 25.0 mg/kg/injection, schedule: Q01DX009 (ip), vehicle: saline with Tween-80 93 % of control | [3] 102 % of control | [4] 88 % of control

c1ccc(C2=C(c3ccccc3)c3cccc4cccc2c34)cc1
inactive: dose: 100.0 mg/kg/injection, schedule: Q01DX001 (ip), vehicle: acetone 100 % of control | dose: 100.0 mg/kg/injection, schedule: Q01DX009 (ip), vehicle: acetone 87 % of control | dose: 100.0 mg/kg/injection, schedule: Q04DX003 (ip), vehicle: saline 94 % of control | dose: 200.0 mg/kg/injection, schedule: Q01DX001 (ip), vehicle: acetone 89 % of control | dose: 200.0 mg/kg/injection, schedule: Q01DX009 (ip), vehicle: acetone 96 % of control | dose: 200.0 mg/kg/injection, schedule: Q04DX003 (ip), vehicle: saline 97 % of control | dose: 400.0 mg/kg/injection, schedule: Q01DX001 (ip), vehicle: acetone 94 % of control | dose: 400.0 mg/kg/injection, schedule: Q01DX009 (ip), vehicle: acetone 87 % of control | dose: 400.0 mg/kg/injection, schedule: Q04DX003 (ip), vehicle: saline 92 % of control

CC(C)(C)c1cc(OCC2CO2)ccc1OCC1CO1 (configuration not stated)
inactive: dose: 100.0 mg/kg/injection, schedule: Q01DX001 (ip), vehicle: saline 107 % of control | dose: 200.0 mg/kg/injection, schedule: Q01DX001 (ip), vehicle: saline 107 % of control | [5] 95 % of control

Oc1ccccc1/C=N\N=C(N/N=C/c1ccccc1O)N/N=C/c1ccccc1O
inactive: dose: 15.0 mg/kg/injection, schedule: Q01DX Z (ip), vehicle: saline 98 % of control | dose: 30.0 mg/kg/injection, schedule: Q01DX Z (ip), vehicle: saline 102 % of control | dose: 60.0 mg/kg/injection, schedule: Q01DX Z (ip), vehicle: saline 102 % of control | dose: 120.0 mg/kg/injection, schedule: Q01DX Z (ip), vehicle: saline 96 % of control | dose: 120.0 mg/kg/injection, schedule: Q01DX Z (oral), vehicle: saline 95 % of control | dose: 240.0 mg/kg/injection, schedule: Q01DX Z (ip), vehicle: saline 101 % of control | dose: 240.0 mg/kg/injection, schedule: Q01DX Z (oral), vehicle: saline 90 % of control | dose: 480.0 mg/kg/injection, schedule: Q01DX Z (ip), vehicle: saline 95 % of control | dose: 480.0 mg/kg/injection, schedule: Q01DX Z (oral), vehicle: saline 92 % of control | dose: 960.0 mg/kg/injection, schedule: Q01DX Z (oral), vehicle: saline 90 % of control

Cc1ccc([N+](=O)[O-])cc1NC(=O)N1CCCCC1C (configuration not stated)
inactive: [6] 97 % of control | dose: 100.0 mg/kg/injection, schedule: Q01DX009 (ip), vehicle: Klucel (hydroxypropylcellulose) (HPC) 106 % of control and 90 % of control | dose: 100.0 mg/kg/injection, schedule: Q04DX002 (ip), vehicle: Klucel (hydroxypropylcellulose) (HPC) 97 % of control and 102 % of control | [1] 100 % of control | [7] 111 % of control | dose: 200.0 mg/kg/injection, schedule: Q01DX009 (ip), vehicle: Klucel (hydroxypropylcellulose) (HPC) 92 % of control and 97 % of control | dose: 200.0 mg/kg/injection, schedule: Q04DX002 (ip), vehicle: Klucel (hydroxypropylcellulose) (HPC) 97 % of control and 104 % of control | [2] 88 % of control | [8] 101 % of control | dose: 400.0 mg/kg/injection, schedule: Q01DX009 (ip), vehicle: Klucel (hydroxypropylcellulose) (HPC) 108 % of control and 87 % of control | dose: 400.0 mg/kg/injection, schedule: Q04DX002 (ip), vehicle: Klucel (hydroxypropylcellulose) (HPC) 93 % of control and 102 % of control | dose: 400.0 mg/kg/injection, schedule: Q04DX003 (ip), vehicle: Klucel (hydroxypropylcellulose) (HPC) 104 % of control

CCOC(=O)C(=CNc1cccc2ccncc12)C(=O)OCC
inactive: dose: 100.0 mg/kg/injection, schedule: Q04DX003 (ip), vehicle: saline with Tween-80 104 % of control | dose: 200.0 mg/kg/injection, schedule: Q04DX003 (ip), vehicle: saline with Tween-80 95 % of control | dose: 400.0 mg/kg/injection, schedule: Q04DX003 (ip), vehicle: saline with Tween-80 117 % of control

COc1ccc(/C=N\NC(=O)CNC(=O)Nc2cccc(Cl)c2)cc1O
inactive: [3] 95 % of control | [4] 92 % of control | dose: 200.0 mg/kg/injection, schedule: Q01DX009 (ip), vehicle: saline with Tween-80 92 % of control

Cc1cc(N(CCOS(C)(=O)=O)CCOS(C)(=O)=O)ccc1C=Nc1ccc(-c2csc(-c3ccccc3)n2)c(Cl)c1
inactive: dose: 20.0 mg/kg/injection, schedule: Q04DX003 (ip), vehicle: Klucel (hydroxypropylcellulose) (HPC) 121 % of control | dose: 60.0 mg/kg/injection, schedule: Q04DX003 (ip), vehicle: Klucel (hydroxypropylcellulose) (HPC) 122 % of control | dose: 80.0 mg/kg/injection, schedule: Q04DX003 (ip), vehicle: Klucel (hydroxypropylcellulose) (HPC) 120 % of control | [1] 122 % of control

CCCCC=C(C)C
inactive: dose: 50.0 mg/kg/injection, schedule: Q01DX001 (ip), vehicle: carboxymethylcellulose (CMC) 106 % of control | dose: 100.0 mg/kg/injection, schedule: Q01DX001 (ip), vehicle: carboxymethylcellulose (CMC) 93 % of control | dose: 200.0 mg/kg/injection, schedule: Q01DX001 (ip), vehicle: carboxymethylcellulose (CMC) 104 % of control | [9] 104 % of control

CC(C)(C)OC(=O)CNC(=O)C(Cc1ccccc1)NC(=O)C(N)CSC(c1ccccc1)(c1ccccc1)c1ccccc1 (stereo not drawn) (H-Cys(Trt)-Phe-Gly-OtBu; configuration not given here)
inactive: dose: 264.0 mg/kg/injection, schedule: Q01DX001 (ip), vehicle: carboxymethylcellulose (CMC) 104 % of control | dose: 264.0 mg/kg/injection, schedule: Q01DX001 (ip), vehicle: saline 110 % of control | [9] 107 % of control | [5] 115 % of control

CC(=O)[O][Hg][C]([Hg][O]C(C)=O)([Hg][O]C(C)=O)[Hg][O]C(C)=O
inactive: [6] 91 % of control | [7] 96 % of control | [8] 89 % of control

O=C(Nc1ccc(C(=O)O)cc1)Nc1ccccc1Cl
inactive: dose: 25.0 mg/kg/injection, schedule: Q04DX002 (ip), vehicle: saline 106 % of control | dose: 50.0 mg/kg/injection, schedule: Q04DX002 (ip), vehicle: saline 100 % of control | dose: 100.0 mg/kg/injection, schedule: Q04DX002 (ip), vehicle: saline + alcohol 114 % of control | dose: 100.0 mg/kg/injection, schedule: Q04DX002 (ip), vehicle: saline 118 % of control
